Experimental data as given in the NIST ThermoML archive (doi:10.1016/j.jct.2013.02.004).
Numbers after ± are expanded uncertainties.

Experiment: activity coefficient (dimensionless); of the first substance listed, at infinite dilution; xn = mol fraction of the nth substance listed
Conditions: 101 kPa, Liquid, Chromatography, x1 = 0

activity coefficient (308.15 K)	activity coefficient (318.15 K)	activity coefficient (328.15 K)	activity coefficient (338.15 K)	activity coefficient (348.15 K)	activity coefficient (358.15 K)	activity coefficient (368.15 K)	Compound
7.2 ± 0.49	6.9 ± 0.47	6.6 ± 0.45	6.2 ± 0.42	5.9 ± 0.4	5.7 ± 0.39	5.5 ± 0.37	C1=CCCCC1 [cyclohexene] + CCCCCC[n+]1ccc2ccccc2c1.N#C[S-]
18.8 ± 1.3	17.5 ± 1.2	16.5 ± 1.1	15.4 ± 1.1	14.5 ± 1	13.7 ± 0.9	12.9 ± 0.9	C1CCCCCCC1 [cyclooctane] + CCCCCC[n+]1ccc2ccccc2c1.N#C[S-]
14.7 ± 1	13.4 ± 0.9	12.3 ± 0.8	11.5 ± 0.8	10.8 ± 0.7	10.2 ± 0.7	9.6 ± 0.65	C1CCCC1 [cyclopentane] + CCCCCC[n+]1ccc2ccccc2c1.N#C[S-]
105 ± 7	96.7 ± 6.6	90.4 ± 6.2	84.1 ± 5.8	78.4 ± 5.4	73.4 ± 5	68.1 ± 4.7	CCCCCCCCCC [decane] + CCCCCC[n+]1ccc2ccccc2c1.N#C[S-]
23.7 ± 1.6	21.2 ± 1.4	20.5 ± 1.4	17.6 ± 1.2	16.5 ± 1.1	15.7 ± 1.1	14.1 ± 1	CC(C)OC(C)C [diisopropyl ether] + CCCCCC[n+]1ccc2ccccc2c1.N#C[S-]
15.9 ± 1.1	14.9 ± 1	14.2 ± 1	13.2 ± 0.9	12.6 ± 0.9	11.9 ± 0.8	11.3 ± 0.8	CCCOCCC [dipropyl ether] + CCCCCC[n+]1ccc2ccccc2c1.N#C[S-]
		0.6 ± 0.042	0.59 ± 0.042	0.581 ± 0.041	0.574 ± 0.041	0.566 ± 0.041	CCO [ethanol] + CCCCCC[n+]1ccc2ccccc2c1.N#C[S-]
		3.08 ± 0.21	3.07 ± 0.21	3.07 ± 0.21	3.06 ± 0.21	3.05 ± 0.21	CCc1ccccc1 [ethylbenzene] + CCCCCC[n+]1ccc2ccccc2c1.N#C[S-]
53 ± 3.6	47 ± 3.2	42.5 ± 2.9	38 ± 2.6	35.2 ± 2.4	32 ± 2.2	29.1 ± 2	CCCCCCC [heptane] + CCCCCC[n+]1ccc2ccccc2c1.N#C[S-]
20.2 ± 1.4	18.2 ± 1.2	16.9 ± 1.2	15.4 ± 1.1	14.4 ± 1	13.3 ± 0.9	12.3 ± 0.8	C=CCCCC [hex-1-ene] + CCCCCC[n+]1ccc2ccccc2c1.N#C[S-]
46.6 ± 3.2	40.5 ± 2.8	35.6 ± 2.4	31.6 ± 2.2	28.3 ± 1.9	25.4 ± 1.7	23.1 ± 1.6	CCCCCC [hexane] + CCCCCC[n+]1ccc2ccccc2c1.N#C[S-]
		0.381 ± 0.033	0.378 ± 0.033	0.375 ± 0.033	0.376 ± 0.033	0.37 ± 0.033	CO [methanol] + CCCCCC[n+]1ccc2ccccc2c1.N#C[S-]
24.2 ± 1.7	21.5 ± 1.5	19.8 ± 1.4	17.7 ± 1.2	16.4 ± 1.1	15.2 ± 1	14 ± 1	CC1CCCCC1 [methylcyclohexane] + CCCCCC[n+]1ccc2ccccc2c1.N#C[S-]

Compound	activity coefficient (308.15 K)	activity coefficient (318.15 K)	activity coefficient (328.15 K)	activity coefficient (338.15 K)	activity coefficient (348.15 K)	activity coefficient (358.15 K)	activity coefficient (368.15 K)
CCOCC [diethyl ether] + CCCCCC[n+]1ccc2ccccc2c1.N#C[S-]	7.48 ± 0.51	7.07 ± 0.48	6.69 ± 0.46	6.34 ± 0.43	6.15 ± 0.42	5.91 ± 0.4	5.66 ± 0.39
